Assay [1] concerns the target T1, Recombinant human BChE (Homo sapiens, UniProt P06276). In words: biochemical. Conditions: for Emax: read-out: BChE, % Efficacy.
Assay [2] has as its target recombinant human AChE (Homo sapiens, UniProt P22303). The experiment in a line: biochemical. Format: biochemical. The following applies: for Emax: read-out: AChE, % Efficacy.
In assay [3] the target is T1, Recombinant human BChE. Format: biochemical.

Structures can show the parent of a compound that is named as a salt. Where two headings read alike, the source gives them in different places.

Usually IC50 stands for the concentration that gives 50% inhibition.

T1 sequence (P06276 29-602): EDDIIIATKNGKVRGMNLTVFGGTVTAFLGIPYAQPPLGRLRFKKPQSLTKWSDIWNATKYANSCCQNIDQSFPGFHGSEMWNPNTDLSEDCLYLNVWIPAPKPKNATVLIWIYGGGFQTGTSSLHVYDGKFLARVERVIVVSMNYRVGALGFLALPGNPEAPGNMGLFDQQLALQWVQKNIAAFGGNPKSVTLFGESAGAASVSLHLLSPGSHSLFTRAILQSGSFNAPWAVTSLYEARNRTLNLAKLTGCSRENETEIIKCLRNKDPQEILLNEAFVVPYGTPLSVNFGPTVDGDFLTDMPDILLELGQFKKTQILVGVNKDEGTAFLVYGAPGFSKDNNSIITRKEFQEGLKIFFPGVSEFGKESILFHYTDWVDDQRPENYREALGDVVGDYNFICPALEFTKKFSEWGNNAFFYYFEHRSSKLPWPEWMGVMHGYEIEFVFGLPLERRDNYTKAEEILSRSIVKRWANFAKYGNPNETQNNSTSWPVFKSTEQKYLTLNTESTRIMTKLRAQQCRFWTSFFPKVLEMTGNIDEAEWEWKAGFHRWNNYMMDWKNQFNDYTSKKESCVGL
recombinant human AChE, sequence (P22303 32-614): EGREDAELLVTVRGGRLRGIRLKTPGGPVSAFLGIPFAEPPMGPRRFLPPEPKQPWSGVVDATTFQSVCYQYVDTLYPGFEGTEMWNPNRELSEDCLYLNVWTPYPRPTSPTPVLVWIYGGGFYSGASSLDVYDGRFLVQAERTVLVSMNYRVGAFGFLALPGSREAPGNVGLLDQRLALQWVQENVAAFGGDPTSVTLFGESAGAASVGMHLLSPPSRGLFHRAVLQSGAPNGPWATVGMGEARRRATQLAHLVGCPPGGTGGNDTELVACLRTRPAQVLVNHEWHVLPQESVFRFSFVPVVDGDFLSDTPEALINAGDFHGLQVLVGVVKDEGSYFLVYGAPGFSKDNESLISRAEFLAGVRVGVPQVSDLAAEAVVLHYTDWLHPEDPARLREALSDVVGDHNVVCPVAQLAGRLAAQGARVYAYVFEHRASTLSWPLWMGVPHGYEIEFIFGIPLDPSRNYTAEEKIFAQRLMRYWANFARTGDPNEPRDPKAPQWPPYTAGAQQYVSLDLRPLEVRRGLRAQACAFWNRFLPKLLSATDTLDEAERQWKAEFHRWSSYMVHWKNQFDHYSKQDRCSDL

For `CCCCn1c(-c2ccccc2)nc(-c2ccccc2)c1CN(Cc1ccc2c(c1)OCO2)Cc1ccc2c(c1)OCO2` [NDT 9513727, N,N-Bis(1,3-benzodioxol-5-ylmethyl)-1-butyl-2,4-diphenyl-1H-imidazole-5-methanamine], the IC50 in assay [1] (BChE, IC50) is 0.21 µM. Besides, in assay [1], the Emax is -101%. For the same compound, in assay [2], the AChE inhibition entry is reported as “did not show AChE inhibition” and the “AChE, IC50” value is “Inactive”.
`CNC(=O)Oc1ccc2c(c1)[C@]1(C)CCN(C)[C@@H]1N2C` [Physostigmine]: the Emax in assay [1] is -98.4%; in assay [2] it was -103%.
Consider `Cc1c[nH]c2ncnc(N3CCC(CN)(C(=O)Nc4cccc(OC(=O)N(C)C)c4)CC3)c12` [LX-7101], for which the IC50 in assay [1] (BChE, IC50) is 0.22 µM; in assay [2], 7.71 µM. Also, the Emax in assay [1] is -96.6%; in assay [2], -92.4%.
For the compound `CCCCCCCCCCC[C@@H](C[C@@H]1OC(=O)[C@H]1CCCCCC)OC(=O)[C@H](CC(C)C)NC=O` [Orlistat], the IC50 in assay [1] (BChE, IC50) was determined as 0.12 µM. For the same compound, the results for the Emax in assay [1] and in assay [2] were -92.9% and -80.5%, respectively.
As for `CN(C)C(=O)Oc1cc(OC(=O)N(C)C)cc(C(O)CNC(C)(C)C)c1` (stereo not shown) [Bambuterol hydrochloride], the IC50 in assay [1] (BChE, IC50) was found to be 0.03 µM. In addition, the Emax in assay [1] is -91.4%. In addition, in assay [2], the “AChE, IC50” value was “Inactive”.
Consider `CN1CCc2cc(Cl)c(O)cc2[C@@H](c2cccc3c2OCC3)C1` [NNC 756], for which the “BChE, % Efficacy” value in assay [1] was 0.84 ± 0.11 (–98.2 ± 6.31) %. The IC50 in assay [1] (read-out: BChE, IC50) came out at 0.84 µM. Further, in assay [2], the “AChE, IC50” value was “Inactive”.
Turning to `CN(C)C(=O)Oc1cccc([N+](C)(C)C)c1` [Neostigmine bromide], the IC50 in assay [1] (BChE, IC50) amounted to 0.9 µM. Moreover, the figures for the Emax in assay [1] and in assay [2] were -102% and -94.6%, respectively.
As to `COc1cc(O)ccc1OCCNCC(O)COc1cccc2[nH]c3ccccc3c12` (stereo not shown) [4-hydroxyphenyl carvedilol], the “BChE, % Efficacy” value in assay [1] is given as 0.97 ± 0.11 (–100 ± 2.04) %. In addition, the IC50 in assay [1] (read-out: BChE, IC50) was found to be 0.97 µM. The “AChE, IC50” value in assay [2] is on record as “Inactive”.
As for `Nc1c2ccccc2nc2ccccc12` [9-Aminoacridine monohydrochloride monohydrate], the IC50 in assay [1] (BChE, IC50) amounted to 0.16 µM. In assay [1], the Emax was -101%.
For the compound `COc1ccc(CN(C(=O)[C@@H](N)Cc2c(C)cc(C(N)=O)cc2C)[C@@H](C)c2ncc(-c3ccccc3)[nH]2)cc1C(=O)O` [Eluxadoline], in assay [1] (BChE, IC50), the IC50 is 0.34 µM. For the same compound, the Emax in assay [1] was -100%. The “AChE, IC50” value in assay [2] is given as “Inactive”.
In the case of `Clc1ccc(Nc2nc3ccccc3c3nc(C4CCCCC4)[nH]c23)cc1Cl` [LUF6000], the “inhibition against BChE in the fluorescent assay” value in assay [3] is given as “did not show inhibition”.
As for Diethylumbelliferyl phosphate, the “AChE, % Efficacy” value in assay [2] is on record as 0.42 ± 0.03 (–98.6 ± 5.66) %.
`O=C(CN1CCN(Cc2ccc3c(c2)OCO3)CC1)N1c2ccccc2Sc2ccccc21` [Fenoverine]: the IC50 in assay [1] (BChE, IC50) is 0.09 µM. Moreover, the Emax in assay [1] was -97.3%. In assay [2], the AChE inhibition entry is given as “did not show AChE inhibition” and the “AChE, IC50” value is given as “Inactive”.
In the case of `Cc1c(Cl)c(=O)oc2cc(OP(=O)(OCCCl)OCCCl)ccc12` [Haloxon], the IC50 is 0.03 µM in assay [1] (BChE, IC50) and 0.32 µM in assay [2]. Also, the Emax was -91.2% in assay [1] and -101% in assay [2].
Turning to `CCN(CC)C(C)CN1c2ccccc2Sc2ccccc21` (stereo not shown) [ethopropazine hydrochloride, Ethopropazine hydrochloride], the IC50 in assay [1] (BChE, IC50) was 1.7 ± 0.53 µM.
For the compound `N#CC(c1ccnc(OCc2ccc(CN3CCOCC3)cc2)n1)c1nc2ccccc2s1` (stereo not shown) [Bentamapimod], the IC50 in assay [1] (BChE, IC50) turned out to be 0.33 µM. In addition, in assay [1], the Emax is -98.8%. Moreover, in assay [2], the AChE inhibition entry was “did not show AChE inhibition” and the “AChE, IC50” value is “Inactive”.
`O=c1nc(-c2ccccn2)sc2ccccc12` [BTZO 1]: the “BChE, % Efficacy” value in assay [1] is listed as 0.49 ± 0.25 (–94.6 ± 2.01) %. Further, in assay [1] (read-out: BChE, IC50), the IC50 came out at 0.49 µM. For the same compound, the “AChE, IC50” value in assay [2] is “Inactive”.
On to `CCN(CCCc1ccccc1)CCCc1ccccc1` [Alverine citrate], for which, in assay [1] (BChE, IC50), the IC50 stood at 0.38 µM. In addition, in assay [1], the Emax is -95%. The “AChE, IC50” value in assay [2] is given as “Inactive”.
For `CC(C)OC(=O)C1=CN(C(=O)c2ccc(F)c(F)c2)CC(C)(C)c2c1[nH]c1ccccc21` [Turofexorate isopropyl], the IC50 in assay [1] (BChE, IC50) worked out at 0.29 µM. Further, in assay [1], the Emax was -98.5%. In assay [2], the AChE inhibition entry was “did not show AChE inhibition” and the “AChE, IC50” value is on record as “Inactive”.

Values taken from PMC8637366 (Slas Discovery, 2021).
